Measured values taken from patent US10696686B2, “Herbicidally active (alkynyl-phenyl)-substituted cyclic dione compounds and derivatives thereof” (Syngenta Limited, priority 2013, dated 2020).

Columns and labels:
Type in all cases: in vivo
[1] = test system: Echinochloa crus-galli (ECHCG); test: Biological Example 1A glasshouse assay, post-emergence application; details: 312 h, 13 days after application, read-out: Percentage phytotoxicity ECHCG
Description: (§1) Seeds of a variety of test plant species were sown in standard soil ** in pots. After cultivation for one day (pre-emergence) or after 8 days cultivation (post-emergence) under controlled conditions in a glasshouse (at 24/16° C., day/night; 14 hours light; 65% humidity), the plants were sprayed with an aqueous spray solution derived from the formulation of the technical active ingredient (the test herbicide) in acetone/water (50:50) solution containing 0.5% Tween 20 (polyoxyethylene sorbitan monolaurate, CAS Reg. No. 9005-64-5). The test plants were then grown on under controlled conditions in a glasshouse (at 24/16° C., day/night; 14 hours light; 65% humidity) and watered twice daily. 13 Days after application of the test herbicide, for pre- and post-emergence, the test was evaluated visually for percentage phytotoxicity to each plant (where 100%=total damage to plant; 0%=no damage to plant). Generally, each test herbicide is only tested on 1 plant per plant species for each application rate tested and for each application timing. ** The “standard soil” in Biological Example 1 is usually a “sand” or “sandy loam” type of soil.
(§2) Dicotyledonous weeds: ABUTH=Abutilon theophrasti; AMARE=Amaranthus retroflexus. Grassy monocotyledonous weeds: SETFA=Setaria faberi; ALOMY=Alopecurus myosuroides; ECHCG=Echinochloa crus-galli; ZEAMX=Zea mays (corn, maize, e.g. volunteer corn). For Compound A16, the grassy monocotyledonous weed LOLPE (Lolium perenne) was used in the test insterad of ALOMY.

Setaria faberi (SETFA) [2] = test: as above; details: for pest or weed control at 250 g/ha / pest or weed control at 30 g/ha: Setaria faberi, 312 h, 13 days after application, read-out: Percentage phytotoxicity SETFA
Description: as §1, §2

[3] = test system: Abutilon theophrasti (ABUTH); test: as above; details: 312 h, 13 days after application, read-out: Percentage phytotoxicity ABUTH
Description: as §1, §2

[4] = test system: Alopecurus myosuroides (ALOMY); test: as above; details: for Percentage phytotoxicity ALOMY: 13 days after application
Description: as §1, §2

[5] = test system: Zea mays (ZEAMX, corn, maize, e.g. volunteer corn); test: as above; details: for pest or weed control at 250 g/ha / pest or weed control at 30 g/ha: Zea mays, 312 h, 13 days after application, read-out: Percentage phytotoxicity ZEAMX
Description: as §1, §2

[6] = test system: Amaranthus retroflexus (AMARE); test: as above; details: 312 h, 13 days after application, read-out: Percentage phytotoxicity AMARE
Description: as §1, §2

[7] = test system: Echinochloa crus-galli (ECHCG); test: Biological Example 1B glasshouse assay, pre-emergence application; details: 250 g/ha, 13 days after application
Description: as §1, §2

Setaria faberi (SETFA) [8] = test: as above; details: 250 g/ha, 13 days after application
Description: as §1, §2

[9] = test system: Abutilon theophrasti (ABUTH); test: as above; details: 250 g/ha, 13 days after application
Description: as §1, §2

[10] = test system: Alopecurus myosuroides (ALOMY); test: as above; details: 250 g/ha, 13 days after application
Description: as §1, §2

[11] = test system: Zea mays (ZEAMX, corn, maize, e.g. volunteer corn); test: as above; details: 250 g/ha, 13 days after application
Description: as §1, §2

[12] = test system: Amaranthus retroflexus (AMARE); test: as above; details: 250 g/ha, 13 days after application
Description: as §1, §2

[13] = test system: grassy (in particular warm climate grassy) monocotyledonous weeds; test: Post-emergence herbicidal activity, summary statements on Biological Examples 1 to 3; details: applied at about 250 g/ha post-emergence; Biological Examples 1 and 2
Description: as §1
Seeds of a variety of monocotyledonous and dicotyledonous test plants are sown in standard soil in pots. The plants are cultivated for one day (for pre-emergence) or for about 12 days (range=10-13 days) (for post-emergence) under controlled conditions in a glasshouse (warm climate species at 24/18° C., cool climate species at 20/16° C., both at day/night; 16 hours light; 65% humidity). An “instant formulation”, known as the “IF50”, containing 50 g/litre (i.e. 5% w/v) of the “technical” (i.e. unformulated) active ingredient is prepared by dissolving the active ingredient in a mixture of organic solvents and emulsifier, details of which are provided in the Table below. […]
The test plants are then grown on, in a glasshouse (greenhouse) under controlled conditions (at either 24/18° C. or 20/16° C. (day/night) as mentioned above; 16 hours light; 65% humidity) and are watered twice daily. Either 14 or 15 days after application of the herbicide (14 or 15 DAA) (for post-emergence), or 20 days after application of the herbicide (20 DAA) (for pre-emergence), the test plants are evaluated visually, and an assessed percentage phytotoxicity score is given for each herbicidal application on each plant species (where 100%=total damage to plant; 0%=no damage to plant). […]

[14] = applied at about 250 g/ha post-emergence

Structure (SMILES): CC#Cc1cc(F)c(C2C(=O)CC3(CCOCC3)CC2=O)c(OC)c1 [Compound A14]
- pest or weed control at 250 g/ha [1]: 20%
- pest or weed control at 250 g/ha (Setaria faberi (SETFA) [2]; post-emergence, 250 g/ha): 70%
- post-emergent herbicidal potency on SETFA (in words) (Setaria faberi (SETFA) [2]; [14]): potent post-emergent herbicides
- herbicidal potency against SETFA compared with compound B2 (in words) (Setaria faberi (SETFA) [2]; post-emergence, 250 g/ha, Biological Example 1A, more potent 'perhaps also' on SETFA): perhaps also
- pest or weed control at 250 g/ha [3]: 0%
- Percentage phytotoxicity ALOMY ([4]; 250 g/ha): 40%
- herbicidal potency against ALOMY compared with compound B2 (in words) ([4]; 250 g/ha, Biological Example 1A): more potent herbicide
- pest or weed control at 250 g/ha ([5]; post-emergence, 250 g/ha): 80%
- post-emergent herbicidal potency on ZEAMX (in words) [5, 14]: potent post-emergent herbicides
- herbicidal potency against ZEAMX compared with compound B2 (in words) ([5]; post-emergence, 250 g/ha, Biological Example 1A): more potent herbicide
- pest or weed control at 250 g/ha [6]: 10%
- Percentage phytotoxicity ECHCG [7]: 70%
- Percentage phytotoxicity SETFA (Setaria faberi (SETFA) [8]): 20%
- Percentage phytotoxicity ABUTH [9]: 0%
- Percentage phytotoxicity ALOMY [10]: 40%
- Percentage phytotoxicity ZEAMX [11]: 30%
- Percentage phytotoxicity AMARE [12]: 20%

Structure (SMILES): CC#Cc1cc(F)c(C2C(=O)C(C)(C)OC(C)(C)C2=O)c(OC)c1 [Compound A10]
- pest or weed control at 30 g/ha [1]: 50%
- pest or weed control at 250 g/ha [1]: 80%
- pest or weed control at 30 g/ha (Setaria faberi (SETFA) [2]; post-emergence): 70%
- pest or weed control at 250 g/ha (Setaria faberi (SETFA) [2]; post-emergence, 250 g/ha): 90%
- pest or weed control at 30 g/ha [3]: 0%
- pest or weed control at 250 g/ha [3]: 0%
- Percentage phytotoxicity ALOMY ([4]; 30 g/ha): 40%
- Percentage phytotoxicity ALOMY ([4]; 250 g/ha): 80%
- pest or weed control at 30 g/ha ([5]; post-emergence): 40%
- pest or weed control at 250 g/ha ([5]; post-emergence, 250 g/ha): 90%
- pest or weed control at 30 g/ha [6]: 0%
- pest or weed control at 250 g/ha [6]: 0%
- Percentage phytotoxicity ECHCG [7]: 90%
- Percentage phytotoxicity SETFA (Setaria faberi (SETFA) [8]): 70%
- Percentage phytotoxicity ABUTH [9]: 0%
- Percentage phytotoxicity ALOMY [10]: 50%
- Percentage phytotoxicity ZEAMX [11]: 50%
- Percentage phytotoxicity AMARE [12]: 0%
- post-emergent herbicidal potency against grassy monocotyledonous weeds (in words) [13]: potent post-emergent herbicides

Structure (SMILES): CC#Cc1cc(F)c(C2C(=O)CC(CC(C)SC)CC2=O)c(OC)c1 (stereo not shown) [Compound A12]
- pest or weed control at 250 g/ha [1]: 20%
- pest or weed control at 250 g/ha (Setaria faberi (SETFA) [2]; post-emergence, 250 g/ha): 0%
- pest or weed control at 250 g/ha [3]: 0%
- Percentage phytotoxicity ALOMY ([4]; 250 g/ha): 0%
- pest or weed control at 250 g/ha ([5]; post-emergence, 250 g/ha): 30%
- pest or weed control at 250 g/ha [6]: 0%

Structure (SMILES): CC#Cc1cc(F)c(C2C(=O)CCC2=O)c(OC)c1 [Compound A9]
- pest or weed control at 30 g/ha [1]: 60%
- pest or weed control at 250 g/ha [1]: 70%
- pest or weed control at 30 g/ha (Setaria faberi (SETFA) [2]; post-emergence): 70%
- pest or weed control at 250 g/ha (Setaria faberi (SETFA) [2]; post-emergence, 250 g/ha): 80%
- pest or weed control at 30 g/ha [3]: 0%
- pest or weed control at 250 g/ha [3]: 30%
- Percentage phytotoxicity ALOMY ([4]; 30 g/ha): 0%
- Percentage phytotoxicity ALOMY ([4]; 250 g/ha): 20%
- pest or weed control at 30 g/ha ([5]; post-emergence): 70%
- pest or weed control at 250 g/ha ([5]; post-emergence, 250 g/ha): 90%
- pest or weed control at 30 g/ha [6]: 0%
- pest or weed control at 250 g/ha [6]: 20%
- Percentage phytotoxicity ECHCG [7]: 80%
- Percentage phytotoxicity SETFA (Setaria faberi (SETFA) [8]): 80%
- Percentage phytotoxicity ABUTH [9]: 0%
- Percentage phytotoxicity ALOMY [10]: 30%
- Percentage phytotoxicity ZEAMX [11]: 80%
- Percentage phytotoxicity AMARE [12]: 20%
- post-emergent herbicidal potency against grassy monocotyledonous weeds (in words) [13]: potent post-emergent herbicides

Structure (SMILES): C#Cc1cc(F)c(C2C(=O)CC3(CCOCC3)CC2=O)c(OC)c1 [Compound B2]
- pest or weed control at 250 g/ha [1]: 30%
- pest or weed control at 250 g/ha (Setaria faberi (SETFA) [2]; post-emergence, 250 g/ha): 60%
- pest or weed control at 250 g/ha [3]: 0%
- Percentage phytotoxicity ALOMY ([4]; 250 g/ha): 10%
- pest or weed control at 250 g/ha ([5]; post-emergence, 250 g/ha): 40%
- pest or weed control at 250 g/ha [6]: 0%
- Percentage phytotoxicity ECHCG [7]: 40%
- Percentage phytotoxicity SETFA (Setaria faberi (SETFA) [8]): 30%
- Percentage phytotoxicity ABUTH [9]: 0%
- Percentage phytotoxicity ALOMY [10]: 50%
- Percentage phytotoxicity ZEAMX [11]: 50%
- Percentage phytotoxicity AMARE [12]: 40%
